Source: ChEMBL document CHEMBL1150005, “Reduced amide bond neurotensin 813 mimetics with potent in vivo activity” (Bioorg Med Chem Lett, 1995)
Numbered stars: 1 amine (or outer) side, 2 acyl side, 3 side chain; on linkers, the order of the positions; unused ones are H or OH. Square brackets hold non-standard residues; d marks the D form. Peptide text beside a SMILES is read from it. * marks the point of attachment. X3 = NCCCC[C@@H](C(=O)[*:2])N(C[C@@H](N)CCCN=C(N)N)[*:1]; X1 = NCCCC[C@H](N)CN([C@@H](CCCCN)C(=O)[*:2])[*:1]; X2 = NCCCCCCN([C@@H](CCCCN)C(=O)[*:2])[*:1]; X6 = N=C(N)NCCCC(CCCNC(=N)N)C(=O)*; X7 = NC(N)=NCCCC(CCCN=C(N)N)C(=O)*; NMeR = CN[C@@H](CCCNC(=N)N)C(=O)O; Tle = CC(C)(C)[C@H](N)C(=O)O; X4 = NCCCCC(CCCCN)C(=O)*; X5 = NCCCC(CCCN)C(=O)*

Experiments:
HT-29 = assay: Compound was tested in vitro to mobilize calcium from HT-29 cells; assay type: functional, cell-based; conditions: Homo sapiens
Mus musculus [1] = assay: Compound was tested in vivo for its ability to inhibit spontaneous locomotor activity of mice; intraperitoneal administration; assay type: functional; conditions: ip
Mus musculus [2] = assay: Analgesic activity was evaluated in the acetic acid induced stretching paradigm after subcutaneous administration; assay type: functional; conditions: sc
[3] = target: T1, Neurotensin receptor type 1 (Mus musculus, UniProt O88319); assay: Binding affinity for Neurotensin Receptor
T1 sequence (O88319 whole entry): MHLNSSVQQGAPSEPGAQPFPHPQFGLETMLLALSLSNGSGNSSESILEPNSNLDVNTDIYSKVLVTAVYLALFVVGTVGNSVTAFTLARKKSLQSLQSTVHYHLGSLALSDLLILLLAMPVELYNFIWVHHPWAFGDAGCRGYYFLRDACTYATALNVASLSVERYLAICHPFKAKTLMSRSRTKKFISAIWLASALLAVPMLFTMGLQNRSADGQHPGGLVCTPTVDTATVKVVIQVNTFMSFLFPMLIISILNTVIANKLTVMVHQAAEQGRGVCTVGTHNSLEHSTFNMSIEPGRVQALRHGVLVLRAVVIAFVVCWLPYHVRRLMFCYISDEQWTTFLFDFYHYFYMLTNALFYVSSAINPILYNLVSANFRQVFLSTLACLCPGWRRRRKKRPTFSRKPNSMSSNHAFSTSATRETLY

Mus musculus [4] = assay: Compound was tested in vivo for its ability to inhibit spontaneous locomotor activity of mice after intraperitoneal administration; assay type: functional; conditions: ip
[5] = target: T1, Neurotensin receptor type 1; assay: Compound was tested in vitro for its binding affinity against Neurotensin Receptor […]
Mus musculus [6] = assay: Compound was tested in vivo for its ability to inhibit spontaneous locomotor activity of mice after intracerebroventricular administration; assay type: functional; conditions: central

SMILES	Ki [3] [nM]	ED50 (Mus musculus [4]) [mg/kg]	further results
CC[C@H](C)[C@H](NC(=O)[C@H](Cc1ccc(O)cc1)NC(=O)[C@@H]1CCCN1C(=O)[C@H](CCCNC(=N)N)NC(=O)[C@@H](N)CCCNC(=N)N)C(=O)N[C@@H](CC(C)C)C(=O)O [listing 1 of 2 here]	–	–	EC50 (HT-29): 4.21 nM
CC[C@H](C)[C@H](NC(=O)[C@H](Cc1ccc(O)cc1)NC(=O)[C@@H]1CCCN1C(=O)[C@H](CCCNC(=N)N)NC(=O)[C@@H](N)CCCNC(=N)N)C(=O)N[C@@H](CC(C)C)C(=O)O [listing 2 of 2 here]	–	–	ED50 (Mus musculus [1]): > 10 mg/kg; ED50 (Mus musculus [2]): > 10 mg/kg
CN[C@@H](CCCNC(=N)N)C(=O)N[C@@H](CCCCN)C(=O)N1CCC[C@H]1C(=O)N[C@@H](Cc1c[nH]c2ccccc12)C(=O)N[C@H](C(=O)N[C@@H](CC(C)C)C(=O)O)C(C)(C)C (H-[NMeR]KPW[Tle]L-OH)	–	–	Ki [5]: 0.064 nM
CC[C@H](C)[C@H](NC(=O)[C@H](Cc1c[nH]c2ccccc12)NC(=O)[C@@H]1CCCN1C(=O)[C@H](CCCCN)NC[C@@H](N)CCCCN)C(=O)N[C@@H](CC(C)C)C(=O)O (H-[X1]PWIL-OH) [listing 1 of 2 here]	0.06	–	EC50 (HT-29): 110 nM
CC[C@H](C)[C@H](NC(=O)[C@H](Cc1c[nH]c2ccccc12)NC(=O)[C@@H]1CCCN1C(=O)[C@H](CCCCN)NC[C@@H](N)CCCCN)C(=O)N[C@@H](CC(C)C)C(=O)O (H-[X1]PWIL-OH) [listing 2 of 2 here]	–	6.3	–
CCOC(=O)[C@H](CC(C)C)NC(=O)[C@@H](NC(=O)[C@H](Cc1c[nH]c2ccccc12)NC(=O)[C@@H]1CCCN1C(=O)[C@H](CCCCN)NC[C@@H](N)CCCCN)C(C)(C)C (H-[X1]PW[Tle]L-OEt) [listing 2 of 2 here]	–	0.21	–
CC(C)C[C@H](NC(=O)[C@@H](NC(=O)[C@H](Cc1c[nH]c2ccccc12)NC(=O)[C@@H]1CCCN1C(=O)[C@H](CCCCN)NC[C@@H](N)CCCCN)C(C)(C)C)C(=O)O (H-[X1]PW[Tle]L-OH) [listing 2 of 2 here]	–	0.14	–
CC[C@H](C)[C@H](NC(=O)[C@H](Cc1ccc(O)cc1)NC(=O)[C@@H]1CCCN1C(=O)[C@H](CCCCN)NC[C@@H](N)CCCCN)C(=O)N[C@@H](CC(C)C)C(=O)O (H-[X1]PYIL-OH) [listing 1 of 2 here]	0.15	–	–
CC[C@H](C)[C@H](NC(=O)[C@H](Cc1ccc(O)cc1)NC(=O)[C@@H]1CCCN1C(=O)[C@H](CCCCN)NC[C@@H](N)CCCCN)C(=O)N[C@@H](CC(C)C)C(=O)O (H-[X1]PYIL-OH) [listing 2 of 2 here]	–	> 10	–
CC(C)C[C@H](NC(=O)[C@@H](NC(=O)[C@H](Cc1ccc(O)cc1)NC(=O)[C@@H]1CCCN1C(=O)[C@H](CCCCN)NC[C@@H](N)CCCCN)C(C)(C)C)C(=O)O (H-[X1]PY[Tle]L-OH) [listing 1 of 2 here]	0.4	–	EC50 (HT-29): 512 nM
CC(C)C[C@H](NC(=O)[C@@H](NC(=O)[C@H](Cc1ccc(O)cc1)NC(=O)[C@@H]1CCCN1C(=O)[C@H](CCCCN)NC[C@@H](N)CCCCN)C(C)(C)C)C(=O)O (H-[X1]PY[Tle]L-OH) [listing 2 of 2 here]	–	0.9	–
CCOC(=O)[C@H](CC(C)C)NC(=O)[C@@H](NC(=O)[C@H](Cc1c[nH]c2ccccc12)NC(=O)[C@@H]1CCCN1C(=O)[C@H](CCCCN)NCCCCCCN)C(C)(C)C (H-[X2]PW[Tle]L-OEt) [listing 2 of 2 here]	–	–	ED50 (Mus musculus [1]): 0.3 mg/kg; ED50 (Mus musculus [2]): 0.05 mg/kg
CCOC(=O)[C@H](CC(C)C)NC(=O)[C@@H](NC(=O)[C@H](Cc1c[nH]c2ccccc12)NC(=O)[C@@H]1CCCN1C(=O)[C@H](CCCCN)NC[C@@H](N)CCCN=C(N)N)C(C)(C)C (H-[X3]PW[Tle]L-OEt) [listing 1 of 2 here]	437	–	–
CCOC(=O)[C@H](CC(C)C)NC(=O)[C@@H](NC(=O)[C@H](Cc1c[nH]c2ccccc12)NC(=O)[C@@H]1CCCN1C(=O)[C@H](CCCCN)NC[C@@H](N)CCCN=C(N)N)C(C)(C)C (H-[X3]PW[Tle]L-OEt) [listing 2 of 2 here]	–	–	ED50 (Mus musculus [1]): 0.15 mg/kg; ED50 (Mus musculus [6]): 1.6 mg/kg
CC(C)C[C@H](NC(=O)[C@@H](NC(=O)[C@H](Cc1c[nH]c2ccccc12)NC(=O)[C@@H]1CCCN1C(=O)[C@H](CCCCN)NC[C@@H](N)CCCN=C(N)N)C(C)(C)C)C(=O)O (H-[X3]PW[Tle]L-OH) [listing 2 of 2 here]	–	–	ED50 (Mus musculus [1]): 0.48 mg/kg; ED50 (Mus musculus [2]): 0.3 mg/kg
CC(C)C[C@H](NC(=O)[C@@H](NC(=O)[C@H](Cc1c[nH]c2ccccc12)NC(=O)[C@@H]1CCCN1C(=O)C(CCCCN)CCCCN)C(C)(C)C)C(=O)O (X4-PW[Tle]L-OH) [listing 2 of 2 here]	–	0.6	–
CC(C)C[C@H](NC(=O)[C@@H](NC(=O)[C@H](Cc1c[nH]c2ccccc12)NC(=O)[C@@H]1CCCN1C(=O)C(CCCN)CCCN)C(C)(C)C)C(=O)O (X5-PW[Tle]L-OH) [listing 2 of 2 here]	–	0.5	–
CC(C)C[C@H](NC(=O)[C@@H](NC(=O)[C@H](Cc1c[nH]c2ccccc12)NC(=O)[C@@H]1CCCN1C(=O)C(CCCN=C(N)N)CCCN=C(N)N)C(C)(C)C)C(=O)O (X7-PW[Tle]L-OH)	–	1.5	–

Now from value to compound, other results behind:

Ki [3] [nM]	SMILES	ED50 (Mus musculus [4]) [mg/kg]	further results
60	CC(C)C[C@H](NC(=O)[C@@H](NC(=O)[C@H](Cc1c[nH]c2ccccc12)NC(=O)[C@@H]1CCCN1C(=O)[C@@H](N)CCCCN)C(C)(C)C)C(=O)O (H-KPW[Tle]L-OH)	> 10	–
31.2	CCOC(=O)[C@H](CC(C)C)NC(=O)[C@@H](NC(=O)[C@H](Cc1c[nH]c2ccccc12)NC(=O)[C@@H]1CCCN1C(=O)[C@H](CCCCN)NC[C@@H](N)CCCCN)C(C)(C)C (H-[X1]PW[Tle]L-OEt) [listing 1 of 2 here]	–	EC50 (HT-29): 4500 nM
1.13	CC(C)C[C@H](NC(=O)[C@@H](NC(=O)[C@H](Cc1c[nH]c2ccccc12)NC(=O)[C@@H]1CCCN1C(=O)[C@H](CCCCN)NC[C@@H](N)CCCCN)C(C)(C)C)C(=O)O (H-[X1]PW[Tle]L-OH) [listing 1 of 2 here]	–	EC50 (HT-29): 362 nM
27	CCOC(=O)[C@H](CC(C)C)NC(=O)[C@@H](NC(=O)[C@H](Cc1c[nH]c2ccccc12)NC(=O)[C@@H]1CCCN1C(=O)[C@H](CCCCN)NCCCCCCN)C(C)(C)C (H-[X2]PW[Tle]L-OEt) [listing 1 of 2 here]	–	–
17.1	CC(C)C[C@H](NC(=O)[C@@H](NC(=O)[C@H](Cc1c[nH]c2ccccc12)NC(=O)[C@@H]1CCCN1C(=O)[C@H](CCCCN)NC[C@@H](N)CCCN=C(N)N)C(C)(C)C)C(=O)O (H-[X3]PW[Tle]L-OH) [listing 1 of 2 here]	–	–
3.8	CC(C)C[C@H](NC(=O)[C@@H](NC(=O)[C@H](Cc1c[nH]c2ccccc12)NC(=O)[C@@H]1CCCN1C(=O)C(CCCCN)CCCCN)C(C)(C)C)C(=O)O (X4-PW[Tle]L-OH) [listing 1 of 2 here]	–	–
17	CC(C)C[C@H](NC(=O)[C@@H](NC(=O)[C@H](Cc1c[nH]c2ccccc12)NC(=O)[C@@H]1CCCN1C(=O)C(CCCN)CCCN)C(C)(C)C)C(=O)O (X5-PW[Tle]L-OH) [listing 1 of 2 here]	–	–
0.1	CC(C)C[C@H](NC(=O)[C@@H](NC(=O)[C@H](Cc1c[nH]c2ccccc12)NC(=O)[C@@H]1CCCN1C(=O)C(CCCNC(=N)N)CCCNC(=N)N)C(C)(C)C)C(=O)O (stereo partly drawn) (X6-PW[Tle]L-OH)	–	–
